Reference: patent US10457710B2, “Antimicrobial peptides, their variants and uses” (priority 2015, dated 2019)
Where a SMILES comes first, the peptide text is derived from it. [ ]: non-standard residue; d: D form.

How the values were obtained:
Assay type in all cases: cell-based
[1] = test system: clinical strains of E. cloacae; experiment: MIC, microdilution, clinical strains; details: 0.02% BSA, 0.2% acetic acid
Method in brief: (§1)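 Broth microdilution with inocula adjusted to 5.0×10^5 cfu/ml; peptides tested at 0.125 to 128 μg/ml and incubated at 37° C for 20 to 24 hours. Bacteria were grown in Mueller Hinton broth, yeasts in potato dextrose broth. MIC was the lowest concentration showing no visible growth.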

[2] = test system: clinical strains of E. coli; experiment: MIC, microdilution, clinical strains; details: microdilution, Muller Hinton broth-cation adjusted, 0.02% BSA, 0.2% acetic acid
Method in brief: as §1

[3] = test system: clinical strains of K. pneumoniae; experiment: MIC, microdilution, clinical strains; details: 0.02% BSA, 0.2% acetic acid
Method in brief: as §1

[4] = test system: clinical strains of P. aeruginosa; experiment: MIC, microdilution, clinical strains; details: 0.02% BSA, 0.2% acetic acid
Method in brief: as §1

[5] = test system: clinical strains of Proteus mirabilis; experiment: MIC, microdilution, clinical strains; details: 0.02% BSA, 0.2% acetic acid
Method in brief: as §1

[6] = test system: clinical strains of S. aureus; experiment: MIC, microdilution, clinical strains; details: 0.02% BSA, 0.2% acetic acid
Method in brief: as §1

[7] = test system: clinical strains of S. pneumoniae; experiment: MIC, microdilution, clinical strains; details: 0.02% BSA, 0.2% acetic acid
Method in brief: as §1

[8] = test system: clinical strains of Serratia marcescens; experiment: MIC, microdilution, clinical strains; details: 0.02% BSA, 0.2% acetic acid
Method in brief: as §1

[9] = test system: clinical strains of Acinetobacter baumannii; experiment: MIC, microdilution, clinical strains; set-up: unit: μg/ml; details: 0.02% BSA, 0.2% acetic acid
Description: Minimum inhibition concetrations (MICs) were determined against Escherichia coli (ATCC 25922), Staphylococcus aureus (ATCC 25923), Klebsiella pneumoniae (ATCC 10031) and Pseudomonas aeruginosa (ATCC 27853). Also clinical strains of E. coli, K. pneumoniae, E. cloacae, P. aeruginosa, Serratia marcescens, Proteus mirabilis, S. pneumoniae, Acinetobacter baumannii, A. johnsonii and S. aureus were used for MICs assays. Additionally, clinical strains of yeast including Candida albicans, C. glabrata, C. parapsilosis and C. quillermondiae were used. The susceptibility of these microorganisms to Chain peptides were determined using micro broth dilution assay. Colonies of the respective microorganism from Muller Hinton (MH) agar plates incubated overnight were suspended in MH broth media and final concentration of microorganism was adjusted to 5.0×10^5 cfu/ml. An aliquot of 10 μl of each Chain peptide, or gentamicin, tetracycline as reference antibiotics were added in differing concentrations along with 90 μl of bacterial suspension to 96 well polypropylene plates and incubated at 37° C. for 20 to 24 hours. Concentrations of Chain peptides and reference antibiotics ranged from 0.125 to 128 μg/ml and the MICs were recorded as the lowest concentration with no visual growth of bacteria. Similarly, antifungal MICs were tested in Potato dextrose broth.
Clinical strains of yeasts including Candida albicans, C. glabrata, C. parapsilosis and C. quillermondiae were also tested with the 12 Chain peptides. The minimum inhibitory concentration (MICs) varied between these peptides and are presented in Tables 4a, 4b, 4c and 5a, 5b, 5c. Peptides Chain 105, 201 and 308 are broad spectrum antimicrobials with MICs between 0.5-32 μg/ml against all the bacteria and yeasts tested, except Serratia marcescens and Proteus mirabilis, against which the MICs were between 64-128 μg/ml. Peptide Chain 306 has narrow spectrum activity against E. coli at 1 μg/ml and for the rest of the bacterial strains at >32 μg/ml (FIG. 10c).

C. glabrata = experiment: MIC, clinical yeast strains; details: D-form peptide, concentrations tested 0.125 to 128 μg/ml
Method in brief: (§2)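 For A. johnsonii, Mueller Hinton broth; for the clinical yeasts, Potato dextrose broth. In both, 5.0×10^5 cfu/ml was exposed to peptide over 0.125–128 μg/ml for 20–24 h at 37 °C, and MIC was read as the lowest concentration showing no visual growth.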

C. parapsilosis = experiment: MIC, clinical yeast strains; details: D-form peptide, concentrations tested 0.125 to 128 μg/ml
Method in brief: as §2

Candida albicans = experiment: MIC, clinical yeast strains; details: D-form peptide, concentrations tested 0.125 to 128 μg/ml
Method in brief: as §2

C. quillermondiae = experiment: MIC, clinical yeast strains; details: clinical yeast strain 1; D-form peptide; concentrations tested 0.125 to 128 μg/ml
Method in brief: as §2

SMILES: CC[C@@H](C)[C@@H](NC(=O)[C@@H](Cc1c[nH]c2ccccc12)NC(=O)[C@H](N)CCCCN)C(=O)N[C@@H](C(=O)N[C@H](Cc1c[nH]c2ccccc12)C(=O)N[C@H](CCCNC(=N)N)C(=O)N[C@H](Cc1c[nH]c2ccccc12)C(=O)N[C@H](CCCNC(=N)N)C(=O)N[C@H](Cc1ccccc1)C(=O)N[C@H](CCCCN)C(=O)N[C@H](CCCNC(=N)N)C(=O)O)C(C)C [Chain201D] (H-[dK][dW][dI][dV][dW][dR][dW][dR][dF][dK][dR]-OH)
- Minimum inhibitory concentration ([1]; Enterobacter cloacae strain 1, Muller Hinton broth-cation adjusted): 1
- Minimum inhibitory concentration ([1]; Enterobacter cloacae strain 2, Muller Hinton broth-cation adjusted): 2
- Minimum inhibitory concentration ([1]; Enterobacter cloacae strain 3, Muller Hinton broth-cation adjusted): 2
- Minimum inhibitory concentration ([1]; Enterobacter cloacae strain 4, Muller Hinton broth-cation adjusted): 2
- Minimum inhibitory concentration ([1]; Enterobacter cloacae strain 5, Muller Hinton broth-cation adjusted): 1
- Minimum inhibitory concentration ([2]; Escherichia coli strain 1): 16
- Minimum inhibitory concentration ([2]; Escherichia coli strain 2): 1
- Minimum inhibitory concentration ([2]; Escherichia coli strain 3): 1
- Minimum inhibitory concentration ([2]; Escherichia coli strain 4): 1
- Minimum inhibitory concentration ([2]; Escherichia coli strain 5): 1
- Minimum inhibitory concentration ([3]; Klebsiella pneumoniae strain 1, Muller Hinton broth-cation adjusted): 2
- Minimum inhibitory concentration ([3]; Klebsiella pneumoniae strain 2, Muller Hinton broth-cation adjusted): 2
- Minimum inhibitory concentration ([3]; Klebsiella pneumoniae strain 3, Muller Hinton broth-cation adjusted): 4
- Minimum inhibitory concentration ([3]; Klebsiella pneumoniae strain 4, Muller Hinton broth-cation adjusted): 4
- Minimum inhibitory concentration ([3]; Klebsiella pneumoniae strain 5, Muller Hinton broth-cation adjusted): 2
- Minimum inhibitory concentration ([4]; Pseudomonas aeruginosa strain 1, Muller Hinton broth-cation adjusted): 4
- Minimum inhibitory concentration ([4]; Pseudomonas aeruginosa strain 2, Muller Hinton broth-cation adjusted): 4
- Minimum inhibitory concentration ([4]; Pseudomonas aeruginosa strain 3, Muller Hinton broth-cation adjusted): 4
- Minimum inhibitory concentration ([4]; Pseudomonas aeruginosa strain 4, Muller Hinton broth-cation adjusted): 2
- Minimum inhibitory concentration ([4]; Pseudomonas aeruginosa strain 5, Muller Hinton broth-cation adjusted): 2
- Minimum inhibitory concentration ([5]; Proteus mirabilis strain 1, Muller Hinton broth-cation adjusted): >128
- Minimum inhibitory concentration ([5]; Proteus mirabilis strain 2, Muller Hinton broth-cation adjusted): 32
- Minimum inhibitory concentration ([5]; Proteus mirabilis strain 3, Muller Hinton broth-cation adjusted): 64
- Minimum inhibitory concentration ([5]; Proteus mirabilis strain 4, Muller Hinton broth-cation adjusted): >128
- Minimum inhibitory concentration ([5]; Proteus mirabilis strain 5, Muller Hinton broth-cation adjusted): >128
- Minimum inhibitory concentration ([6]; Staphylococcus aureus strain 1, Muller Hinton broth-cation adjusted): 1
- Minimum inhibitory concentration ([6]; Staphylococcus aureus strain 2, Muller Hinton broth-cation adjusted): 1
- Minimum inhibitory concentration ([6]; Staphylococcus aureus strain 3, Muller Hinton broth-cation adjusted): 1
- Minimum inhibitory concentration ([6]; Staphylococcus aureus strain 4, Muller Hinton broth-cation adjusted): 1
- Minimum inhibitory concentration ([6]; Staphylococcus aureus strain 5, Muller Hinton broth-cation adjusted): 1
- Minimum inhibitory concentration ([7]; Streptococcus pneumoniae strain 1, Muller Hinton broth-cation adjusted): 8
- Minimum inhibitory concentration ([7]; Streptococcus pneumoniae strain 2, Muller Hinton broth-cation adjusted): 4
- Minimum inhibitory concentration ([7]; Streptococcus pneumoniae strain 3, Muller Hinton broth-cation adjusted): 2
- Minimum inhibitory concentration ([7]; Streptococcus pneumoniae strain 4, Muller Hinton broth-cation adjusted): 4
- Minimum inhibitory concentration ([7]; Streptococcus pneumoniae strain 5, Muller Hinton broth-cation adjusted): 4
- Minimum inhibitory concentration ([8]; Serratia marcescens strain 1, Muller Hinton broth-cation adjusted): 64
- Minimum inhibitory concentration ([8]; Serratia marcescens strain 2, Muller Hinton broth-cation adjusted): 64
- Minimum inhibitory concentration ([8]; Serratia marcescens strain 3, Muller Hinton broth-cation adjusted): 64
- Minimum inhibitory concentration ([8]; Serratia marcescens strain 4, Muller Hinton broth-cation adjusted): 64
- Minimum inhibitory concentration ([8]; Serratia marcescens strain 5, Muller Hinton broth-cation adjusted): 128
- Minimum inhibitory concentration ([9]; Acinetobacter baumannii strain 1, Muller Hinton broth-cation adjusted): 4
- Minimum inhibitory concentration ([9]; Acinetobacter baumannii strain 2, Muller Hinton broth-cation adjusted): 4
- Minimum inhibitory concentration ([9]; Acinetobacter baumannii strain 3, Muller Hinton broth-cation adjusted): 4
- Minimum inhibitory concentration ([9]; Acinetobacter baumannii strain 4, Muller Hinton broth-cation adjusted): 4
- Minimum inhibitory concentration ([9]; Acinetobacter baumannii strain 5, Muller Hinton broth-cation adjusted): 4
- Minimum inhibitory concentration, C. glabrata strain 1 (C. glabrata; clinical yeast strain 1): 8
- Minimum inhibitory concentration, C. glabrata strain 2 (C. glabrata; clinical yeast strain 2): 8
- Minimum inhibitory concentration, C. glabrata strain 3 (C. glabrata; clinical yeast strain 3): 8
- Minimum inhibitory concentration, C. glabrata strain 4 (C. glabrata; clinical yeast strain 4): 64
- Minimum inhibitory concentration, C. parapsilosis strain 1 (C. parapsilosis; clinical yeast strain 1): 8
- Minimum inhibitory concentration, C. parapsilosis strain 2 (C. parapsilosis; clinical yeast strain 2): 8
- Minimum inhibitory concentration, C. parapsilosis strain 3 (C. parapsilosis; clinical yeast strain 3): 8
- Minimum inhibitory concentration, C. parapsilosis strain 4 (C. parapsilosis; clinical yeast strain 4): 8
- Minimum inhibitory concentration, Candida albicans strain 1 (Candida albicans; clinical yeast strain 1): 16
- Minimum inhibitory concentration, Candida albicans strain 2 (Candida albicans; clinical yeast strain 2): 8
- Minimum inhibitory concentration, Candida albicans strain 3 (Candida albicans; clinical yeast strain 3): 8
- Minimum inhibitory concentration, Candida albicans strain 4 (Candida albicans; clinical yeast strain 4): 16
- Minimum inhibitory concentration, Candida albicans strain 5 (Candida albicans; clinical yeast strain 5): 8
- Minimum inhibitory concentration, C. quillermondiae strain 1 (C. quillermondiae): 8
